# Source: patent publication US20230107642A1 (Erasca, Inc., priority 2020, published 2023)
# Biological target: T1, K-Ras G12C (Homo sapiens, UniProt P01116, G12C)
# T1 construct: This protein contained 188 amino acids in total, including an N-terminal 6-Histidine tag; made in house; host or cells: E. coli BL21
# Assay: CAF assay (% CAF; method in Example 7, not in this part)
# Type: binding
# Conditions: 10 uM compound, 1 h incubation
row,"% CAF @ 10 uM, 1h",SMILES
1,15.7%,"C=CC(=O)N1CCN(c2nc(=O)n3c4c(c(-c5cc(Cl)c(F)cc5F)c(Cl)cc24)SC[C@@H]3CN2CCC3(CC2)COC3)[C@@H](C)C1 (atropisomer, axis not shown) [Example 483, (3S,10R)-3-((2-oxa-7-azaspiro[3.5]nonan-7-yl)methyl)-7-((S)-4-acryloyl-2-methylpiperazin-1-yl)-9-chloro-10-(5-chloro-2,4-difluorophenyl)-2,3-dihydro-5H-[1,4]thiazino[2,3,4-ij]quinazolin-5-one]"
2,63.5%,"C=CC(=O)N1CCN(c2nc(=O)n3c4c(c(-c5ccc(F)cc5Cl)c(Cl)cc24)SCC3)[C@@H](C)C1 [Example 427, 7-((S)-4-acryloyl-2-methylpiperazin-1-yl)-9-chloro-10-(2-chloro-4-fluorophenyl)-2,3-dihydro-5H-[1,4]thiazino[2,3,4-ij]quinazolin-5-one]"
3,54.3%,"C=CC(=O)N1CCN(c2nc(=O)n3c4c(c(-c5ccc(F)c6[nH]ncc56)c(Cl)cc24)SCC3)[C@@H](C)C1 [Example 419, 7-((S)-4-acryloyl-2-methylpiperazin-1-yl)-9-chloro-10-(7-fluoro-1H-indazol-4-yl)-2,3-dihydro-5H-[1,4]thiazino[2,3,4-ij]quinazolin-5-one]"
4,90%,"C=CC(=O)N1CCN(c2nc(=O)n3c4c(c(-c5ccc(F)cc5F)c(C(F)(F)F)cc24)SC[C@@H](O)C3)[C@@H](C)C1 [Example 431, (3S)-8-((S)-4-acryloyl-2-methylpiperazin-1-yl)-11-(2,4-difluorophenyl)-3-hydroxy-10-(trifluoromethyl)-3,4-dihydro-2H,6H-[1,4]thiazepino[2,3,4-ij]quinazolin-6-one]"
5,93.9%,"C=CC(=O)N1[C@H](C)CN(c2nc(=O)n3c4c(c(-c5cc(Cl)c(F)cc5F)c(C(F)(F)F)cc24)SC[C@@H]3COC)C[C@@H]1C (atropisomer, axis not shown) [Example 563, (3S,10R)-7-((3S,5R)-4-acryloyl-3,5-dimethylpiperazin-1-yl)-10-(5-chloro-2,4-difluorophenyl)-3-(methoxymethyl)-9-(trifluoromethyl)-2,3-dihydro-5H-[1,4]thiazino[2,3,4-ij]quinazolin-5-one]"
6,92%,"C=CC(=O)N1C[C@H](C)N(c2nc(=O)n3c4c(c(-c5ccc(F)cc5F)c(C(F)(F)F)cc24)SC[C@@H]3COC)C[C@H]1C (atropisomer, axis not shown) [Example 508, (3S,10S)-7-((2S,5R)-4-acryloyl-2,5-dimethylpiperazin-1-yl)-10-(2,4-difluorophenyl)-3-(methoxymethyl)-9-(trifluoromethyl)-2,3-dihydro-5H-[1,4]thiazino[2,3,4-ij]quinazolin-5-one]"
7,90%,"C=CC(=O)N1CCN(c2nc(=O)n3c4c(c(-c5cc(Cl)c(F)cc5F)c(Cl)cc24)SC[C@@H]3CN2CCC3(CC2)COC3)[C@@H](C)C1 (atropisomer, axis not shown) [Example 482, (3S,10S)-3-((2-oxa-7-azaspiro[3.5]nonan-7-yl)methyl)-7-((S)-4-acryloyl-2-methylpiperazin-1-yl)-9-chloro-10-(5-chloro-2,4-difluorophenyl)-2,3-dihydro-5H-[1,4]thiazino[2,3,4-ij]quinazolin-5-one]"
8,38%,"C=CC(=O)N1CCN(c2nc(=O)n3c4c(c(-c5cc(Cl)c(F)cc5F)c(Cl)cc24)SC[C@@H]3COCOC)[C@@H](C)C1 [Example 446, (3S)-7-((S)-4-acryloyl-2-methylpiperazin-1-yl)-9-chloro-10-(5-chloro-2,4-difluorophenyl)-3-((methoxymethoxy)methyl)-2H-[1,4]thiazino[2,3,4-ij]quinazolin-5(3H)-one]"
9,97%,"C=CC(=O)N1CCN(c2nc(=O)n3c4c(c(-c5ccc(F)cc5)c(C(F)(F)F)cc24)SC[C@@H](OC)C3)[C@@H](C)C1 [Example 532, (S)-8-((S)-4-acryloyl-2-methylpiperazin-1-yl)-11-(4-fluorophenyl)-3-methoxy-10-(trifluoromethyl)-3,4-dihydro-2H,6H-[1,4]thiazepino[2,3,4-ij]quinazolin-6-one]"
10,73.6%,"C=CC(=O)N1CCN(c2nc(=O)n3c4c(c(-c5cc(Cl)c(F)cc5F)c(Cl)cc24)SC[C@@H]3CN2CCN(CC)CC2)[C@@H](C)C1 [Example 412, (3S)-7-((S)-4-acryloyl-2-methylpiperazin-1-yl)-9-chloro-10-(5-chloro-2,4-difluorophenyl)-3-((4-ethylpiperazin-1-yl)methyl)-2H-[1,4]thiazino[2,3,4-ij]quinazolin-5(3H)-one]"
11,52.3%,"C=CC(=O)N1[C@H](C)CN(c2nc(=O)n3c4c(c(-c5cc(Cl)c(F)cc5F)c(C(F)(F)F)cc24)SC[C@@H]3CO)C[C@@H]1C [Example 568, (3S)-7-((3S,5R)-4-acryloyl-3,5-dimethylpiperazin-1-yl)-10-(5-chloro-2,4-difluorophenyl)-3-(hydroxymethyl)-9-(trifluoromethyl)-2H-[1,4]thiazino[2,3,4-ij]quinazolin-5(3H)-one]"
12,51.6%,"C=CC(=O)N1C[C@H](C)N(c2nc(=O)n3c4c(c(-c5cc(Cl)c(F)cc5F)c(Cl)cc24)SC[C@@H]3CN2CCC3(CC2)COC3)C[C@H]1C [Example 449, (3S)-3-(2-oxa-7-azaspiro[3.5]nonan-7-ylmethyl)-7-((2S,5R)-4-acryloyl-2,5-dimethylpiperazin-1-yl)-9-chloro-10-(5-chloro-2,4-difluorophenyl)-2H-[1,4]thiazino[2,3,4-ij]quinazolin-5(3H)-one]"

# Same assay, conditions: 10 uM, 1 h; Table 3
row,"% CAF @ 10 uM, 1h",SMILES
1,89%,"N#CC[C@H]1CN(c2nc(=O)n3c4c(c(-c5ccc(F)cc5F)c(Cl)cc24)SCC3)CCN1C(=O)/C=C/C(F)(F)F [Example 81, 2-((2S)-4-(9-chloro-10-(2,4-difluorophenyl)-5-oxo-2,3-dihydro-5H-[1,4]thiazino[2,3,4-ij]quinazolin-7-yl)-1-((E)-4,4,4-trifluorobut-2-enoyl)piperazin-2-yl)acetonitrile]"
2,51.9%,"C=CC(=O)N1CCN(c2nc(=O)n3c4c(c(-c5cccc6ccccc56)c(Cl)cc24)SCC3)[C@@H](C)C1 (atropisomer, axis not shown) [Example 172, 7-((S)-4-acryloyl-2-methylpiperazin-1-yl)-9-chloro-10-(naphthalen-1-yl)-2,3-dihydro-5H-[1,4]thiazino[2,3,4-ij]quinazolin-5-one]"
3,94.7%,"C=CC(=O)N1CCN(c2nc(=O)n3c4c(c(-c5ccc(F)cc5F)c(Br)cc24)SCC3)[C@@H](C)C1 [Example 142, 7-((S)-4-acryloyl-2-methylpiperazin-1-yl)-9-bromo-10-(2,4-difluorophenyl)-2,3-dihydro-5H-[1,4]thiazino[2,3,4-ij]quinazolin-5-one]"
4,89.2%,"C=CC(=O)N1CCN(c2nc(=O)n3c4c(c(-c5ccc(F)cc5F)c(Cl)cc24)SCC3)[C@H](CS(C)(=O)=O)C1 [Example 188, 7-((S)-4-acryloyl-2-((methylsulfonyl)methyl)piperazin-1-yl)-9-chloro-10-(2,4-difluorophenyl)-2,3-dihydro-5H-[1,4]thiazino[2,3,4-ij]quinazolin-5-one]"
5,55.7%,"C=CC(=O)N1CCN(c2nc(=O)n3c4c(c(-c5cc(O)ccc5Cl)c(Cl)cc24)SCC3)[C@@H](C)C1 [Example 153, 7-((S)-4-acryloyl-2-methylpiperazin-1-yl)-9-chloro-10-(2-chloro-5-hydroxyphenyl)-2,3-dihydro-5H-[1,4]thiazino[2,3,4-ij]quinazolin-5-one]"
6,92.6%,"C=CC(=O)N1CCN(c2nc(=O)n3c4c(c(-c5ccc(F)cc5F)c(Cl)cc24)SCC3)C[C@@H]1CS(C)(=O)=O [Example 186, 7-((R)-4-acryloyl-3-((methylsulfonyl)methyl)piperazin-1-yl)-9-chloro-10-(2,4-difluorophenyl)-2,3-dihydro-5H-[1,4]thiazino[2,3,4-ij]quinazolin-5-one]"
7,0%,"C=CC(=O)N1CCN(c2nc(=O)n3c4c(c(-c5cccc6cnn(C)c56)c(Cl)cc24)SCC3)[C@@H](C)C1 (atropisomer, axis not shown) [Example 107, (S)-7-((S)-4-acryloyl-2-methylpiperazin-1-yl)-9-chloro-10-(1-methyl-1H-indazol-7-yl)-2,3-dihydro-5H-[1,4]thiazino[2,3,4-ij]quinazolin-5-one]"
8,86.4%,"C=CC(=O)N1CCN(c2nc(=O)n3c4c(c(-c5ccc(F)c(Cl)c5)c(Cl)cc24)SCC3)[C@@H](C)C1 [Example 98, (S)-7-(4-acryloyl-2-methylpiperazin-1-yl)-9-chloro-10-(3-chloro-4-fluorophenyl)-2,3-dihydro-5H-[1,4]thiazino[2,3,4-ij]quinazolin-5-one]"
9,95.6%,"C=CC(=O)N1CCN(c2nc(=O)n3c4c(c(-c5cccc(F)c5F)c(Cl)cc24)SCC3)[C@@H](C)C1 [Example 74, 7-((S)-4-acryloyl-2-methylpiperazin-1-yl)-9-chloro-10-(2,3-difluorophenyl)-2,3-dihydro-5H-[1,4]thiazino[2,3,4-ij]quinazolin-5-one]"
10,80.9%,"C=CC(=O)N1CCN(c2nc(=O)n3c4c(c(-c5ccc(F)cc5F)c(Cl)cc24)SCC3CN2CCN(CC)CC2)[C@@H](C)C1 (stereo partly drawn) [Example 122, 7-((S)-4-acryloyl-2-methylpiperazin-1-yl)-9-chloro-10-(2,4-difluorophenyl)-3-((4-ethylpiperazin-1-yl)methyl)-2,3-dihydro-5H-[1,4]thiazino[2,3,4-ij]quinazolin-5-one]"

# Same assay, conditions: 10 μM, 1 h; Table 4
row,"% CAF @ 10 μM, 1 h",SMILES
1,82.5%,"C=CC(=O)N1CCN(c2nc(=O)n3c4c(c(-c5ccc(F)cc5F)c(Cl)cc24)SC[C@H]3CN2CCN(CC(F)F)CC2)[C@@H](C)C1 [Example 347, (3R)-7-((S)-4-acryloyl-2-methylpiperazin-1-yl)-9-chloro-3-((4-(2,2-difluoroethyl)piperazin-1-yl)methyl)-10-(2,4-difluorophenyl)-2H-[1,4]thiazino[2,3,4-ij]quinazolin-5(3H)-one]"
